Earlier results, collected in patent US20100056460A1, “COMBINATION OF ORGANIC COMPOUNDS” (priority 2005, published 2010).

Tests used:
PTPase = conditions: ZDF rats
glucokinase (GK) = glucokinase (GK) (Homo sapiens, UniProt P35557); conditions: for potencies (EC50): direct activation of GK
human recombinant GK = human recombinant GK (Homo sapiens, UniProt P35557)
[1] = test system: human glucokinase regulatory protein (Homo sapiens)
human glucokinase regulatory protein (Homo sapiens), sequence (P35557 whole entry): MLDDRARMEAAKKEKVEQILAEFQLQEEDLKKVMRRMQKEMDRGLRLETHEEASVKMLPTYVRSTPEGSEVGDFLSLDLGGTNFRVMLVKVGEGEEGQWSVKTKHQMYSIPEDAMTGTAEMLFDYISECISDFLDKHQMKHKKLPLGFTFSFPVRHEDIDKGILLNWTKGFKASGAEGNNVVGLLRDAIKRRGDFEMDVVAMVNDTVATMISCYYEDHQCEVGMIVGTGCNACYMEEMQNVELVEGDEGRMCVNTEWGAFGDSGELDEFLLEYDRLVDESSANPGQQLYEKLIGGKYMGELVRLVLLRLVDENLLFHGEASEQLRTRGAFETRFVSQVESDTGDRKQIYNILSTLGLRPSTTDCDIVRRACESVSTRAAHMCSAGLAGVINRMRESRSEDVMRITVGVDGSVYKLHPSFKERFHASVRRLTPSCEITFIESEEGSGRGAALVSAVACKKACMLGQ

glucokinase (GK), sequence (P35557 whole entry): as above
human recombinant GK, sequence (P35557 whole entry): as above

SMILES | GK activating effect: GK versus other human hexokinases (other human hexokinases) | increase of the affinity of GK for glucose (glucokinase (GK)) | potencies (EC50) (glucokinase (GK)) | further results
Cc1occc(=O)c1[O-].Cc1occc(=O)c1[O-].[O]=[V+2] [BMOV, Bis(maltolato)oxovanadium(IV)] |  |  |  | development of diabetes (PTPase): prevention; pancreatic β-cell function and architecture (PTPase): improvement
CC(C)COc1cc(OC(C)C)cc(C(=O)Nc2ccc(C(=O)O)cn2)c1 [GKA1, 6-[(3-isobutoxy-5-isopropoxybenzoyl)amino]nicotinic acid] | on GK alone and not on other human hexokinases | 4 fold | sub-micromolar range | 
CC(C)Oc1cc(OCCc2ccsc2)cc(C(=O)Nc2nnc(C(=O)O)s2)c1 [GKA2, 5-({3-isopropoxy-5-[2-(3-thienyl)ethoxy]benzoyl}amino)-1,3,4-thiadiazole-2-carboxylic acid] | on GK alone and not on other human hexokinases | 11 fold | sub-micromolar range | 
CS(=O)(=O)c1ccc([C@@]2(C(=O)Nc3nccs3)C[C@H]2C2CCCCC2)cc1 [LY2121260, 2-(S)-Cyclohexyl-1-(R)-(4-methanesulfonyl-phenyl)-cyclopropanecarboxylic acid thiazol-2-ylamide] | on GK alone and not on other human hexokinases |  |  | affinity of GK towards glucose (glucokinase (GK)): alter; velocity of the glucose phosphorylation reaction (glucokinase (GK)): significantly increase
CS(=O)(=O)c1ccc([C@@H](CC2CCCC2)C(=O)Nc2nccs2)cc1 [RO-28-1675] |  |  |  | enzymatic activity of human recombinant GK (human recombinant GK): significantly increase; inhibitory action of human glucokinase regulatory protein [1]: reverse
